# Source: ChEMBL document CHEMBL1201862, “PubChem BioAssay data set” (2004)
# The source made the active and inactive calls.
# What was measured:
# [1] = biological target: Intestinal-type alkaline phosphatase (Mus musculus, UniProt P24822); experiment: PubChem AID 488874; assay type: functional
# [2] = biological target: Alkaline phosphatase, placental type (Homo sapiens, UniProt P05187); experiment: human placental alkaline phosphatase inhibition – biochemical, luminescence, confirmation (AID 1512); assay type: functional
# [3] = microbe, parasite or virus in culture; assay type: functional; details: Mycobacterium tuberculosis
# [4] = biological target: T1, Mannose-6-phosphate isomerase (Homo sapiens, UniProt P34949); experiment: phosphomannose isomerase inhibition – biochemical, fluorescence intensity, confirmation (AID 1535)
# T1 sequence (P34949 whole entry): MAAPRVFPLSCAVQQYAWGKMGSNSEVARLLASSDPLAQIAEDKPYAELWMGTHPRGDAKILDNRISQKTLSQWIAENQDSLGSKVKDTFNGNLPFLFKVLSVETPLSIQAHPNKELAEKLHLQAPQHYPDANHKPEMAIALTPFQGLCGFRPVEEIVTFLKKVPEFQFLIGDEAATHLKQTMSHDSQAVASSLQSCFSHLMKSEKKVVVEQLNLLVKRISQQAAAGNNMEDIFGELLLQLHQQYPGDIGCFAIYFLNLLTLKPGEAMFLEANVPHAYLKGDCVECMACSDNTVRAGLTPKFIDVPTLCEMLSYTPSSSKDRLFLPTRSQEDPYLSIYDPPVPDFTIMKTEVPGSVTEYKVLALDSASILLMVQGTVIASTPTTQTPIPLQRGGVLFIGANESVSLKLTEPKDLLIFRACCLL
# [5] = biological target: T2, Intestinal-type alkaline phosphatase (Homo sapiens, UniProt P09923); experiment: activation of human intestinal alkaline phosphatase – biochemical, luminescent, uHTS hits, set 2, dose response (AID 488817); assay type: functional;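 further: potency of activators that raise enzyme activity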
# [6] = biological target: T2, Intestinal-type alkaline phosphatase; experiment: human intestinal alkaline phosphatase activators, dose response, biochemical, luminescence, uHTS hits (AID 463120); assay type: functional
# [7] = biological target: T3, Endoribonuclease toxin MazF (Escherichia coli K-12, UniProt P0AE70); experiment: activation of MazEF endoribonuclease cleavage – biochemical, fluorescence, single-stranded RNA substrate, uHTS hits, dose response (AID 588481); assay type: functional
# T3 sequence (P0AE70 whole entry): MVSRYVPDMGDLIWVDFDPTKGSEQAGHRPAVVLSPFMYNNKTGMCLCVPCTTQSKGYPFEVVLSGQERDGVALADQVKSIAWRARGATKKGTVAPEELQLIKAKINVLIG
# CHO = CHO cell viability loss, potency – luminescence, cytotoxicity control for TLR9-MyD88 binding inhibitor project, dose response (AID 588339); assay type: functional, cell-based, hamster; details: Cricetulus griseus;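 further: CHO cells stably coexpressing TLR9 and MyD88 fusions from primary screen; compound exposure lasted 48 hours before viability readout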
# [8] = biological target: T1, Mannose-6-phosphate isomerase; experiment: Confirmation of compounds inhibiting phosphomannose isomerase (PMI) via a fluorescence intensity assay using a high concentration of mannose 6-phosphate. [Related pubchem assays (depositor defined):AID1209, AID1220, AID1545, AID1553, AID1620]
# [9] = biological target: Heat shock protein HSP 90-alpha (Homo sapiens, UniProt P07900); assay type: functional, organism-based
# [10] = biological target: T3, Endoribonuclease toxin MazF; experiment: substrate-only fluorescence increase artefacts – biochemical, single-stranded RNase substrate, counter-screen for MazEF activator project, dose response (AID 588502); assay type: functional
# [11] = biological target: Type-1 angiotensin II receptor (Homo sapiens, UniProt P30556); experiment: agonist activity at AGTR1 – cell-based, uHTS hits, selectivity assay for APJ receptor agonist project, dose response (AID 488865); assay type: functional;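 further: beta-arrestin recruitment to AT1 measured by enzyme fragment complementation luminescence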
# [12] = alpha-synuclein stem-loop luciferase translation blockers – H4 neuroglioma cells, luminescence, confirmation (AID 1988); assay type: functional, cell-based
# [13] = Luminescence Cell-Based Dose Response HTS to Identify Inhibitors of 5'UTR Stem-Loop Driven Prion Protein mRNA Translation in H4 Neuroglioblastoma Cells. [Related pubchem assays: 1827 (Project Summary), 1813 (Primary HTS)]; assay type: functional
# [14] = luciferase reporter signal suppression in cells – H4 neuroglioma cells, luminescence, dose response (AID 1990); assay type: functional, cell-based
# Coagulation factor XII = biological target: T4, Coagulation factor XII (Homo sapiens, UniProt P00748); experiment: Factor XIIa Dose Response Confirmation from Single Well HTS. [Related pubchem assays (depositor defined):AID701]; assay type: functional
# T4 sequence (P00748 whole entry): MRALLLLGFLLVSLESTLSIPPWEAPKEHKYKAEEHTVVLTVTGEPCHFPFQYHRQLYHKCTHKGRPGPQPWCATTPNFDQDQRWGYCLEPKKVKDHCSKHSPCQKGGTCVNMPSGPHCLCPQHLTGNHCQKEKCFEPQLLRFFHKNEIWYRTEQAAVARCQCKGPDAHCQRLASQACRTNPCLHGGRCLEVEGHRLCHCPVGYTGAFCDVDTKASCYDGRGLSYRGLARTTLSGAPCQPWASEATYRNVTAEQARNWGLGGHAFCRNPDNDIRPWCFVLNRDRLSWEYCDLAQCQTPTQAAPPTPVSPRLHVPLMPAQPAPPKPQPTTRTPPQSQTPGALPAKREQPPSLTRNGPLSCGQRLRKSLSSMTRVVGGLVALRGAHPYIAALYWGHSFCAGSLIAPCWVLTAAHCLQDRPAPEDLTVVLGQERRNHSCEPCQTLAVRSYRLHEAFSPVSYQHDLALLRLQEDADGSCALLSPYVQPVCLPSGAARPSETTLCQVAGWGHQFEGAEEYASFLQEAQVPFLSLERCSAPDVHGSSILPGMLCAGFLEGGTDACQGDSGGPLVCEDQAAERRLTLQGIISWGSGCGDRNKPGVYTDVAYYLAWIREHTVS
# [15] = biological target: T5, Dual specificity protein phosphatase 3 (Homo sapiens, UniProt P51452); experiment: SAR VHR1 Fluorescent Assay for In Vitro dose response studies Set 2. [Related pubchem assays (depositor defined):AID1654, AID1661, AID1878]; assay type: functional
# [16] = biological target: T6, Dual specificity protein phosphatase 6 (Rattus norvegicus, UniProt Q64346); assay type: functional
# T6 sequence (Q64346 whole entry): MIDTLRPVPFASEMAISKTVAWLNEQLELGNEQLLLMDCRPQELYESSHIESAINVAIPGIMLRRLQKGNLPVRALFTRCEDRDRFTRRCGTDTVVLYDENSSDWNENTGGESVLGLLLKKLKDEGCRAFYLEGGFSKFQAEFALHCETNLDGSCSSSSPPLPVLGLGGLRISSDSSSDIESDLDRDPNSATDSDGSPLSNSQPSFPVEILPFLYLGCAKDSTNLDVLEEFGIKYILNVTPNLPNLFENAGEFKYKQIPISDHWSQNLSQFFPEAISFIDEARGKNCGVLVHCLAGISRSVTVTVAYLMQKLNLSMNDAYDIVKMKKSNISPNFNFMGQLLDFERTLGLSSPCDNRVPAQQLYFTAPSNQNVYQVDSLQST
# [17] = biological target: T5, Dual specificity protein phosphatase 3; experiment: SAR VHR1 absorbance Assay for In Vitro dose response studies. [Related pubchem assays (depositor defined):AID1654, AID1661, AID1878, AID1992, AID2004]
# [18] = biological target: T7, Tyrosine-protein phosphatase non-receptor type 7 (Homo sapiens, UniProt P35236); experiment: inhibition of hematopoietic tyrosine phosphatase HePTP – biochemical, set 2, SAR follow-up (AID 449736); assay type: functional
# T7 sequence (P35236 whole entry): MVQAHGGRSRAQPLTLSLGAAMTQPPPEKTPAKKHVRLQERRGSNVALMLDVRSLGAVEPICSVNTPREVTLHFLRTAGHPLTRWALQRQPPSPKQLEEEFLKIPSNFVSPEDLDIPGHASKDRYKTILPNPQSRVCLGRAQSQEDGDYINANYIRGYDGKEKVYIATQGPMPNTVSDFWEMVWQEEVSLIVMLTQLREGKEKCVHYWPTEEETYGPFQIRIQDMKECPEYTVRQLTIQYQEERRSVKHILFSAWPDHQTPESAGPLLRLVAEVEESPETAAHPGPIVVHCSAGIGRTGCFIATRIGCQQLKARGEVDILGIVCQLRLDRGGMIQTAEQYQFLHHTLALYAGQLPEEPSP
# [19] = biological target: T7, Tyrosine-protein phosphatase non-receptor type 7; experiment: SAR analysis of chemical inhibitors of HePTP using a Fluorescent assay - Set 2. [Related pubchem assays (depositor defined):AID1059, AID1077, AID1661, AID2085, AID521]; assay type: functional
# [20] = biological target: T7, Tyrosine-protein phosphatase non-receptor type 7; experiment: redox-active compounds inhibiting HePTP phosphatase – biochemical, fluorescence, mechanism study (AID 2068); assay type: functional
# [21] = biological target: T6, Dual specificity protein phosphatase 6; experiment: SAR analysis of inhibitors of MKP-3 - Set 2. [Related pubchem assays (depositor defined):AID1055, AID1661, AID425, AID553, AID566]; assay type: functional
# [22] = biological target: T5, Dual specificity protein phosphatase 3; experiment: SAR VHR1 Fluorescent Assay for In Vitro dose response studies. [Related pubchem assays (depositor defined):AID1654, AID1661, AID1878, AID1992, AID2004, AID2070, AID2085]; assay type: functional
# T5 sequence (P51452 whole entry): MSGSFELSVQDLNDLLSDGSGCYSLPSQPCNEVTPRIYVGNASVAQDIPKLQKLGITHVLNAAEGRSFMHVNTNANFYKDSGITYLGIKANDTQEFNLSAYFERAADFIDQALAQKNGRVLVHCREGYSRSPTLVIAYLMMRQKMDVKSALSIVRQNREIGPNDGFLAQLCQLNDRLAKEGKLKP
# Alkaline phosphatase, placental type, sequence (P05187 whole entry): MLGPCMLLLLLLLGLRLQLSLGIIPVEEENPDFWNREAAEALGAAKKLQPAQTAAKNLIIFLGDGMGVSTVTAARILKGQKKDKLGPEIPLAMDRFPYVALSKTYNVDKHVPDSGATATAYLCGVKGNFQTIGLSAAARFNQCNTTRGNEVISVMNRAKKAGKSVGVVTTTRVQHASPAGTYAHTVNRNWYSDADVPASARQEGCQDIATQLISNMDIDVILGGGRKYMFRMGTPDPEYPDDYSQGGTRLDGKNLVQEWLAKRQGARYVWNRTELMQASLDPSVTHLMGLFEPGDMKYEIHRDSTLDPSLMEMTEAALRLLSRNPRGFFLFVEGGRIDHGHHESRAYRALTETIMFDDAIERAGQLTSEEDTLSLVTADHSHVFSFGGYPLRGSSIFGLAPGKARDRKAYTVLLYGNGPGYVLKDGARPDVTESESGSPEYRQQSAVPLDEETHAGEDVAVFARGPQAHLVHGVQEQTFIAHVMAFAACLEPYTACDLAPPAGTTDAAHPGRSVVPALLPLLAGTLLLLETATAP
# T2 sequence (P09923 whole entry): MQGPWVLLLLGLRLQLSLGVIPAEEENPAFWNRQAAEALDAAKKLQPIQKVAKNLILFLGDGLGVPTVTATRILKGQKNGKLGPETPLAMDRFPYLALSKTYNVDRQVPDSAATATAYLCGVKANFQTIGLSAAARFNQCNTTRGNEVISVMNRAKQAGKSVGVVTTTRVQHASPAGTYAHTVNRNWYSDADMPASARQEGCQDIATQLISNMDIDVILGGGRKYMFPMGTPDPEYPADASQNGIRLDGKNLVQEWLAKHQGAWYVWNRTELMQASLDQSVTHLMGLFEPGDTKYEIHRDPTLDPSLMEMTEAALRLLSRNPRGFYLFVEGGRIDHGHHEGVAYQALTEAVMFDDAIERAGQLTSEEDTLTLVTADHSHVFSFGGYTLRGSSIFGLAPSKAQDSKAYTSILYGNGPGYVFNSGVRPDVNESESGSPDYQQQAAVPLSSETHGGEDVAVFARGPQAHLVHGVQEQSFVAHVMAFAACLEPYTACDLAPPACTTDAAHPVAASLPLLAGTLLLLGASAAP
# Intestinal-type alkaline phosphatase (Mus musculus, UniProt P24822), sequence (P24822 whole entry): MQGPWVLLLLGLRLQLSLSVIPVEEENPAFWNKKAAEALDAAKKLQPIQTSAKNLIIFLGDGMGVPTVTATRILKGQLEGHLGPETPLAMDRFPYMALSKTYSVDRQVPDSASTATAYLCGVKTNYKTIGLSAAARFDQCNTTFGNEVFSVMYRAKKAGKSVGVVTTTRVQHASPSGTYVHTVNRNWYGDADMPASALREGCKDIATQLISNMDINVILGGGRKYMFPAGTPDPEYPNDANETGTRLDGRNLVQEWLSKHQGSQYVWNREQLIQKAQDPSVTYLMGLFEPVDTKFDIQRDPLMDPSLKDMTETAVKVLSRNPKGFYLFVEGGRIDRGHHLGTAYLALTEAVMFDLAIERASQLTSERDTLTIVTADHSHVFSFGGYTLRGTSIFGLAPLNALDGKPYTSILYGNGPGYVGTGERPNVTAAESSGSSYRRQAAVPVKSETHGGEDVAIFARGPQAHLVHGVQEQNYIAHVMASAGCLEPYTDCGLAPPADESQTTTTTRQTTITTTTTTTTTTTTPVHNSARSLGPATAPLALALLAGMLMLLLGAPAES
# Type-1 angiotensin II receptor, sequence (P30556 whole entry, the tested form may be a part): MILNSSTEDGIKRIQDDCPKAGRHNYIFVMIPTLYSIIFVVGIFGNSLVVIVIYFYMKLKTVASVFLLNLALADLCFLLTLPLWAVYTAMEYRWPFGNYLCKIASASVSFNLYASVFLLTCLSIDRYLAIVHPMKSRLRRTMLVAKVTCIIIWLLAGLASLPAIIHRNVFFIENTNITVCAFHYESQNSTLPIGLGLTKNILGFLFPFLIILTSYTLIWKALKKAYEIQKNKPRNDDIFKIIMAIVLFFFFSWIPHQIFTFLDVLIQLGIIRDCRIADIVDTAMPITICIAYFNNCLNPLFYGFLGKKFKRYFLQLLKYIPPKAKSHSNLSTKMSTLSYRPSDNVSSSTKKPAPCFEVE
compound,measurement,setting,value
O=C1Nc2ccc(Br)cc2C12NNc1ccccc1O2 (centres undefined),IC50,[1],8.09 µM (active)
same,IC50,[2],> 100 µM (inactive)
same,CC50,[3],23.8 µM (active)
same,IC50,[4],> 100 µM (inactive)
same,EC50,[5],0.257 µM (active)
same,EC50,[6],10.1 µM (active)
same,EC50,[7],> 99 µM (inactive)
same,IC50,CHO,11.3 µM (inactive)
same,IC50,[8],> 100 µM (inactive)
same,AC50,[9],3.34 µM (active)
same,EC50,[10],73.1 µM (inactive)
C=CCn1c(SCC(=O)N2CCN(c3ccccc3)CC2)nc2c3ccccc3nc-2c1O,EC50,[11],> 100 µM (inactive)
same,EC50,[12],8.55 µM (active)
same,EC50,[13],14.2 µM (active)
same,EC50,[14],> 120 µM (not active)
O=C(Oc1ccc2c3c(c(=O)oc2c1)CCC3)c1ccco1,IC50,Coagulation factor XII,6.22 µM (active)
NS(=O)(=O)c1ccc(NC(=S)N2CCN(Cc3ccc4c(c3)OCO4)CC2)cc1,IC50,[15],1.69 µM (active)
same,IC50,[16],> 99 µM (inactive)
same,IC50,[17],5.41 µM (active)
same,IC50,[18],> 100 µM (inactive)
same,IC50,[19],4.32 µM (active)
same,IC50,[20],0.196 µM (active)
same,IC50,[21],> 100 µM (inactive)
same,IC50,[22],> 99 µM (inactive)
